For data set [1], the system named is behavioral patterns induced by methylphenidate. Nature of the data set: Inhibition of behavioral patterns induced by methylphenidate (in vivo antidopaminergic activity). The settings on record: Rattus norvegicus, ip, read-out: Normalization ED50.
Data set [2] deals with D2 receptors (Homo sapiens, UniProt P14416). Description: Affinity for D2-type receptors by displacement of (3H) YM-09151-2. The class given is binding. Conditions: mean of at least 3 experiments, read-out: D2 pKi (converted). On the procedure: 1- Measurement of the affinity of the compounds of the invention for the D2 receptors. The affinity of the compounds of the invention for the D2-type receptors was determined by measuring the displacement of (^3H) YM-09151-2 (NET-1004 70-87 Ci/mmol), according to the method described in Naunyn-Schimiedeberg's Arch. Pharmacol. Methods, 1985, 329, 333. The pKi values (-log Ki) are given in the form of a mean±SEM of at least 3 experiments.

The nature of data set [3]: Cataleptogenic power (propensity to induce extrapyramidal side effects). The settings on record: rat, in vivo, ip; rats, i.p. administration; read-out: Catalepsy ED50.

Structures can show the parent of a compound that is named as a salt.

What is called ED50 is the midpoint of the dose-response relation. One may read the melting point as the temperature of the solid-liquid transition.

Chain of D2 receptors (P14416 whole entry): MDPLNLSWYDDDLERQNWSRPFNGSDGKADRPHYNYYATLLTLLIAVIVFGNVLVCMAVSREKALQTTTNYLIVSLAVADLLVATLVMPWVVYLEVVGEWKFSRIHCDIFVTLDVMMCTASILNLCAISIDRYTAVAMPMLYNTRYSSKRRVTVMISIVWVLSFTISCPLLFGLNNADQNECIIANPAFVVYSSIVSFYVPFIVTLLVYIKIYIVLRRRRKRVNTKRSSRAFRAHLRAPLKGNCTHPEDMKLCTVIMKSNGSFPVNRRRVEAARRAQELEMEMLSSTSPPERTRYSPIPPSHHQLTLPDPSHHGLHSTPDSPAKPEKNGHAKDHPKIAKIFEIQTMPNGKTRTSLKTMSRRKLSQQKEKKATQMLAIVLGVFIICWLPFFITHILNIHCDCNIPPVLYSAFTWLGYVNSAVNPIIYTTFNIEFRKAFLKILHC

Consider `Cc1nc2n(c(=O)c1CCN1CCC(c3noc4cc(F)ccc34)CC1)CCCC2` [Risperidone, reference compound], for which, in data set [1], the ED50 is 2.9 mg/kg. `CC(C)Oc1ccccc1OCCNCc1cc(OC2CCCC2)ccc1F` (as salt: oxalate) [Compound 1.12] returned a melting point of 159 °C. In the case of `CC(C)Oc1ccccc1OCCNCc1cc(OC2CCCC2)ccc1F` [Compound 1.12], the Ki in data set [2] was 0.741 nM. In addition, the median effective dose (ED50) in data set [3] was > 40 mg/kg; in data set [1], 1.25 mg/kg. The corresponding values for `CC(C)Oc1ccccc1OCCNCc1cccc(OC2CC3C=CC2C3)c1` (stereo not drawn) [Compound 1.4] are 2.75 nM, > 40 mg/kg and 5 mg/kg.

Take `CC(C)Oc1ccccc1OCCNCc1cccc(OC2CC3C=CC2C3)c1` (stereo not drawn) (as salt: oxalate) [Compound 1.4]: the melting point amounted to 177 °C.

(Values after patent US6350913B1, “3-alkoxybenzylamine derivatives and their use as medicines for treating schizophrenia” (Pierre Fabre Medicament, priority 1998, dated 2002).)
